Source: patent publication US6562355B1, “Comixture of dextran sulfate/escin for treating skin redness/edema and/or sensitive skin” (Societe L'Oreal S.A., priority 1999, dated 2003)
Values joined by “and” are separate entries in the source; they are usually repeats but may differ in a detail not shown here. Equal entries are not always repeated.

Tests used:
[1] = tested on: fragments of normal human skin kept alive (eyelid); test: Anti-edema and vasodilation-inhibitory effect in human skin kept alive after induction with substance P/TNFα/arachidonic acid (cocktail A); semi-quantitative histological scores; type: cell-based; conditions: skin + cocktail A (5 μM substance P, arachidonic acid 40 mg/ml, TNFα 50 ng/ml) 2 hours, 37° C., topical, escin 0.075%, dextran sulfate 0.20%, 3 donors; for Vasodilation (histological score of dilation of the capillaries): score 0 (no dilation) to 4 (very large dilation), cocktail A alone 2.2, control skin 0.37; for Edema (histological score): score 0 (no edema) to 4 (very considerable edema), cocktail A alone 2.8, control skin 0.62
Source text: The goal of this study was to visualize the anti-edema effect and the vasodilation-inhibitory effect of intimate admixture of dextran sulfate and escin, in a model of skin kept alive (eyelid) after the induction of edema and vasodilation by a neuromediator (substance P)/α-type tumor necrosis factor (TNFα)/arachidonic acid combination.
Fragments of normal human skin from 3 different donors (plastic surgery), mechanically freed of the subcutaneous fat and the inner layer of the dermis, were each placed on a culture insert consisting of a porous membrane (pores 12 μm in diameter) (Costar), the dermal portion of the skin fragment being placed in contact with the porous membrane. The assembly thus prepared was positioned over the wells of a Costar brand 12-well culture plate and maintained for 24 hours at 37° C. in an incubator under a humidified atmosphere containing 5% CO2.
DMEM culture medium (Gibco-BRL) containing 100 U/ml of penicillin and 100 μg/ml of streptomycin, 200 μg/ml of L-glutamine and 0. 1% fetal calf serum (D.A.P., France), was added to the bottom of the wells such that the liquid reached the porous membrane without passing it. Thus mounted, the skin was in contact via its lower face surface through the porous membrane with the culture medium, transport taking place by slow diffusion between the two compartments.
The edema and the vasodilation were produced experimentally by placing on the surface of the skin a mixture in a culture medium consisting of 25 μl of a neuromediator (5 μM substance P), arachidonic acid (25 μl of a solution at a concentration of 40 mg/ml in glycerol) and TNFα (50 ng/ml), hereinafter referred to as “cocktail A”. These substances were maintained in contact with the skin for 2 hours.
The test products were applied topically onto the skin fragments during the induction of the edema and the vasodilation.
The escin, at a final concentration of 0.075%, was dissolved in water.
The dextran sulfate, at a final concentration of 0.20%, was dissolved in propylene glycol.
The temperature was maintained at 37° C. throughout the test period.
The histological analyses were carried out according to the conventional techniques known to this art, without modification of the protocols.
After treatment, the skin fragments were removed and fixed in Bouin liquid and included in paraffin for the histological analyses.
After staining with hemalun-eosin, the two (2) criteria, edema and dilation of the capillaries, were evaluated by means of semi-quantitative histological scores.
The histological evaluation was carried out in the superficial dermis and in the top part of the middle dermis on the same number of fields four (4) fields at 10× magnification). […]

[2] = cited from earlier work
[3] = solutions of pH ranging from 4 to 10 at room temperature; cited from earlier work

Row | Substance | Vasodilation (histological score of dilation of the capillaries) [1] | Edema (histological score) [1] | solubility in water and saline solutions [2] | stability in solutions [3]
1 | dextran sulfate | 1.8 and 1.8 ± 1.04 | 2.1 and 2.1 ± 1.04 | good | high
2 | escin [reference compound] | 1.5 and 1.5 ± 0.5 | 1.16 and 1.16 ± 0.77 | – | –
